The source made the active and inactive calls.
Key:
Phospholipase A2 = Phospholipase A2 (Homo sapiens, UniProt P04054); format: functional;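 note: confirmatory dose-response counterscreen on phospholipase A2, testing hits that came from an ultra-high-throughput screen for ATG4B inhibitors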
Cysteine protease ATG4B = target: T1, Cysteine protease ATG4B (Homo sapiens, UniProt Q9Y4P1); format: functional;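 note: Fluorescence-based dose-response confirmation assay measuring inhibition of ATG4B activity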
T1 sequence (Q9Y4P1 whole entry): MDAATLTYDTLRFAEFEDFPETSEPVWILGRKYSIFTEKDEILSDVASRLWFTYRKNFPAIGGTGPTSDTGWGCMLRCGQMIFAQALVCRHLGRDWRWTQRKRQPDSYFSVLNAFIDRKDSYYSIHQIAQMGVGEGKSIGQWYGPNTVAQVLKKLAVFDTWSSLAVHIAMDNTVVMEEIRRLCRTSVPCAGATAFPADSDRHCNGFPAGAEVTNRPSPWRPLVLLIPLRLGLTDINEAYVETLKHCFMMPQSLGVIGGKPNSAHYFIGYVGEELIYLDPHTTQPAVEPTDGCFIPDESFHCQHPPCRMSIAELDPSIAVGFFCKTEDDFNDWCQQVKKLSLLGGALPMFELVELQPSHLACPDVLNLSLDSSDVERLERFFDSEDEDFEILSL

HEK293 = experiment: inhibitors of LMP1-driven NF-kB reporter, dose response, cell-based, HEK293, luciferase, cherry-pick (AID 588343); format: functional; settings: Homo sapiens
[1] = inhibitors of HIV Env-driven cell fusion, dose response, cherry-pick (AID 652057); format: functional, cell-based
[2] = ZM109 Env clade C HIV-1 fusion inhibitors, dose response, HeLa effector, CEM target cells, luciferase, cherry-pick (AID 652058); format: functional, cell-based
[3] = inhibitors of clade B AD8 Env fusion, dose response, cell-based, cherry-pick (AID 652062); format: functional;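 note: luciferase signal from cell-cell fusion driven by HIV-1 clade B AD8 Env; potency is for inhibitors of fusion seen as a drop in luminescence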
[4] = off-target signal loss in HeLa-CEM21 co-culture – HeLa F-luc CTL cells, cherry-picked, counter-screen for HIV-1 Env fusion inhibitor project, dose response (AID 652040); format: functional, cell-based;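 note: potency for signal decrease marking cytotoxic or nonspecific inhibition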
[5] = HeLa cell cytotoxicity, dose response, cytotoxicity control for MgcRacGAP inhibitor project (AID 624300); format: functional
[6] = target: T2, Rac GTPase-activating protein 1 (Homo sapiens, UniProt Q9H0H5); experiment: MgcRacGAP GTPase-activating activity inhibitors, confirmation, biochemical, ADP Hunter fluorescence, primary and confirmatory (AID 624330); format: functional
T2 sequence (Q9H0H5 whole entry): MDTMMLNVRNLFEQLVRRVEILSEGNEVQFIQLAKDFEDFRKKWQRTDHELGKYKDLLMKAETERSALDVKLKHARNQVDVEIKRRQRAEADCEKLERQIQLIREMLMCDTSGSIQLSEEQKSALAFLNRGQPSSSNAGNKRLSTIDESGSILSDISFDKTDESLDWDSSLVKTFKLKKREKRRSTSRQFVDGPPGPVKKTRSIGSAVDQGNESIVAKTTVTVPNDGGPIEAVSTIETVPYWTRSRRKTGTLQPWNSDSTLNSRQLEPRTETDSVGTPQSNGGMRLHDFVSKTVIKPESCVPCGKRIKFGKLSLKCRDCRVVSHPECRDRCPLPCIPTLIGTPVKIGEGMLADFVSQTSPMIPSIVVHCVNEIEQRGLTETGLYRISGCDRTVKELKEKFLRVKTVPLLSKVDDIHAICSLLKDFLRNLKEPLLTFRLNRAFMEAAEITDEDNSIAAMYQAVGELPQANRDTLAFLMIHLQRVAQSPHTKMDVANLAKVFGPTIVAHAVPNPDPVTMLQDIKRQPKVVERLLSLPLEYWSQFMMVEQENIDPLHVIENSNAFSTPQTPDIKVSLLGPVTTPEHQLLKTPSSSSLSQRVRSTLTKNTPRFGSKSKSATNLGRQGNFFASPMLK

[7] = target: T3, Mitochondrial peptide methionine sulfoxide reductase (Bos taurus, UniProt P54149); experiment: Absorbance-based biochemical high throughput dose response assay for activators of Methionine sulfoxide reductase A (MsrA).; format: functional
T3 sequence (P54149 whole entry): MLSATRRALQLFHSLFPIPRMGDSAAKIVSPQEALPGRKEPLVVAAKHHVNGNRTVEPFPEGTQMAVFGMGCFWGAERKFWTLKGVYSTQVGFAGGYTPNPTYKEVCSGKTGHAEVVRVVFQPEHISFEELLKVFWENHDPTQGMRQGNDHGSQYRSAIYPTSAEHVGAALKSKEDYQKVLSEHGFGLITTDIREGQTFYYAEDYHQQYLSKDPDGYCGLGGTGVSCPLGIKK

[8] = target: T4, Low molecular weight phosphotyrosine protein phosphatase (Homo sapiens, UniProt P24666); format: functional; settings: read-out: IC50_Mean;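 note: Dose-response confirmation assay measuring inhibition of LMPTP enzyme activity by fluorescence intensity read-out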
T4 sequence (P24666 whole entry): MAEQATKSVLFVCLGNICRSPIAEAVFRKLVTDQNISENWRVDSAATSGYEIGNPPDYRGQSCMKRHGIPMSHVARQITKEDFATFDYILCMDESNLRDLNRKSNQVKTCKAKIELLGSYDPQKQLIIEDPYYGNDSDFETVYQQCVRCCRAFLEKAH

[9] = target: Voltage-dependent T-type calcium channel subunit alpha-1H (Homo sapiens, UniProt O95180); format: functional;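 note: channel activity triggered by adding a high calcium stimulation buffer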
Chain of Voltage-dependent T-type calcium channel subunit alpha-1H (O95180 whole entry): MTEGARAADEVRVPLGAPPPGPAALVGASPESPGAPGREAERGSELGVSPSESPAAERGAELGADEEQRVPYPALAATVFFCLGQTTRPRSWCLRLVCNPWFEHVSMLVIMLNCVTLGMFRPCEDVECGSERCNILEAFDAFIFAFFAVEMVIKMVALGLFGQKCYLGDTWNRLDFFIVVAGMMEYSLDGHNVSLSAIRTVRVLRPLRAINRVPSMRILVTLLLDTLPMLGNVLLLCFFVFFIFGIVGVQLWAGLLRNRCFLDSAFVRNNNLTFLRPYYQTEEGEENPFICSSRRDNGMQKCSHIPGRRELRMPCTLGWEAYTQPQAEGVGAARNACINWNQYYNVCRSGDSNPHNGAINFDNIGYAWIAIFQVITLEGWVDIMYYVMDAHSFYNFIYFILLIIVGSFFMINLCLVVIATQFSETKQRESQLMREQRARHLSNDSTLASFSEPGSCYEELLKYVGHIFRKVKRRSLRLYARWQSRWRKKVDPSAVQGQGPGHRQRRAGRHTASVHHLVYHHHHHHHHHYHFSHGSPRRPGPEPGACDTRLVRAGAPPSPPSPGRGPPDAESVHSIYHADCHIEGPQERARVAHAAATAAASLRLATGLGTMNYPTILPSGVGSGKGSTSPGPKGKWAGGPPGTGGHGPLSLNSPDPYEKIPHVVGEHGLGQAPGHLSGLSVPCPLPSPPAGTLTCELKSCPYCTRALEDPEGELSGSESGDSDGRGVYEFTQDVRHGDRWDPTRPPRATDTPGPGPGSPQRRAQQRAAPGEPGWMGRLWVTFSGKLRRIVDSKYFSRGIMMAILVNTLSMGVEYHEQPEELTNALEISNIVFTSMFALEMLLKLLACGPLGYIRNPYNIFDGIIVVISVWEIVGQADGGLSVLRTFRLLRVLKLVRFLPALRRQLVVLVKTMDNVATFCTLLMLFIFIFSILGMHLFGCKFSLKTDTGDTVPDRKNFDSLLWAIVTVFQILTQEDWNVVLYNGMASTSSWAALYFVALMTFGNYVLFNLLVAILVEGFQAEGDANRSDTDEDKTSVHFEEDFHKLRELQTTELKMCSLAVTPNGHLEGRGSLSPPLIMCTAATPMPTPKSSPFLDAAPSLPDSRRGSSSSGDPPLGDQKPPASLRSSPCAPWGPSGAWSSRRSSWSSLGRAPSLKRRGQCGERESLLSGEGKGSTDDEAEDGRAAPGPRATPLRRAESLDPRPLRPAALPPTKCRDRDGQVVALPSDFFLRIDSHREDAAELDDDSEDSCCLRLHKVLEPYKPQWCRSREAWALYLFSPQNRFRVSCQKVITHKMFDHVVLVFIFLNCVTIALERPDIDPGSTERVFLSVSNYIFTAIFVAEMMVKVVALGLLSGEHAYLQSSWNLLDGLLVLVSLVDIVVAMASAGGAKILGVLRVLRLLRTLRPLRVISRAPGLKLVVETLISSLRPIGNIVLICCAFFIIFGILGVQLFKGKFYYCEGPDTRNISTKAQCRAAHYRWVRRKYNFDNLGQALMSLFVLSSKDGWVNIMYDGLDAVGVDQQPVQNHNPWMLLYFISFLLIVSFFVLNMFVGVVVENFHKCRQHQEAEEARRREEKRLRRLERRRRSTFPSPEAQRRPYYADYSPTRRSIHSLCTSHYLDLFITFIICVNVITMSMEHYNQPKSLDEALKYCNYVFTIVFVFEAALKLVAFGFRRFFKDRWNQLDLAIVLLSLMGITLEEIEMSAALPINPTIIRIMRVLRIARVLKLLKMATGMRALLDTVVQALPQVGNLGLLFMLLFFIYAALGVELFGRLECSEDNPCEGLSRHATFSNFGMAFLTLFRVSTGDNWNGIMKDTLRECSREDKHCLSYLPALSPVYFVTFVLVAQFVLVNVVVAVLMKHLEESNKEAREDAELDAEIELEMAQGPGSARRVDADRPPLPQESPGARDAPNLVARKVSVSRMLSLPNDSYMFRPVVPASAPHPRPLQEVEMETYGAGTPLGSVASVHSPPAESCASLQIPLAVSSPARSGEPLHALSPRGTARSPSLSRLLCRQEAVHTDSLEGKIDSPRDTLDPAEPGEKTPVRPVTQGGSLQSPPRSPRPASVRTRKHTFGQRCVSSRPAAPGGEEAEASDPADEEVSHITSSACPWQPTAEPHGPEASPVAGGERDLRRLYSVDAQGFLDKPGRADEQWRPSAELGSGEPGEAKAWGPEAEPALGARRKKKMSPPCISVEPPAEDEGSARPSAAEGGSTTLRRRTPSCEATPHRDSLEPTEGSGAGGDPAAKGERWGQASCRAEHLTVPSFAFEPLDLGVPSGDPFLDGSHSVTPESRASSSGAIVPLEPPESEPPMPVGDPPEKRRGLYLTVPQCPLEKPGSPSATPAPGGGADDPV

[10] = growth suppression of beta-catenin-knockout colon cells, dose response, cell-based, HCT116, human colon tumor (AID 1045); format: functional;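 note: HCT116 colon tumor cells with beta catenin knocked out; cells exposed to compound for 60 hours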
Cytochrome P450 1A2 = target: T5, Cytochrome P450 1A2 (Homo sapiens, UniProt P05177);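 note: PubChem cytochrome P450 panel assay, CYP1A2 panel member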
T5 sequence (P05177 whole entry): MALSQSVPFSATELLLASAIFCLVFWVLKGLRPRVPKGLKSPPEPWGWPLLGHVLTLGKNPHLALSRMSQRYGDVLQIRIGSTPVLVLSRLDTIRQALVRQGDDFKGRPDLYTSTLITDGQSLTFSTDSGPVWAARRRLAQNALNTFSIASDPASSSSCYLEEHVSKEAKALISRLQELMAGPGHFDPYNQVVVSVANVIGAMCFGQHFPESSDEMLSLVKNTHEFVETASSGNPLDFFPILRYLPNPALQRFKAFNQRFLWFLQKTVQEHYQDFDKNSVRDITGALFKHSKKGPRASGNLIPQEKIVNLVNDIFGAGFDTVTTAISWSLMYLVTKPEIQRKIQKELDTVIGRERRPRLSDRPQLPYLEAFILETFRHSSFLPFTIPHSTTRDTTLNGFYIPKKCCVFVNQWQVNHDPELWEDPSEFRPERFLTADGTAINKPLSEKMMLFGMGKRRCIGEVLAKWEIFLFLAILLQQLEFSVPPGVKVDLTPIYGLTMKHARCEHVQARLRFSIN

[11] = target: Peroxisome proliferator-activated receptor gamma/Nuclear receptor coactivator 3 (Homo sapiens, UniProt P37231); format: functional;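 note: agonist potency for raising coactivator recruitment to the receptor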
[12] = target: Peroxisome proliferator-activated receptor gamma/Nuclear receptor coactivator 1 (Homo sapiens, UniProt P37231); format: functional;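 note: agonist potency as compounds enhance coactivator SRC-1 recruitment to PPARgamma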
[13] = growth suppression of PTEN-null colon cells, dose response, cell-based, HCT116 PTEN knockout (AID 1047); format: functional;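 note: HCT116 colon tumor cells with PTEN knocked out; cells exposed to compound for 60 hours before readout; potency for loss of cell viability measured by luminescence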
[14] = target: Peroxisome proliferator-activated receptor gamma/Nuclear receptor coactivator 2 (Homo sapiens, UniProt P37231); format: functional;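 note: agonist potency for raising coactivator recruitment to the receptor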
Cytochrome P450 2C9 = Cytochrome P450 2C9 (Homo sapiens, UniProt P11712)
Fatty acid synthase [15] = target: T6, Fatty acid synthase (Homo sapiens, UniProt P49327); experiment: FAS thioesterase domain inhibitors, dose response, biochemical, kinetic fluorescence intensity (AID 624326); format: functional;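 note: rate of fluorescence rise from hydrolysis of a fluorogenic O-methyl fluorescein ester substrate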
T6 sequence (P49327 whole entry, the tested form may be a part): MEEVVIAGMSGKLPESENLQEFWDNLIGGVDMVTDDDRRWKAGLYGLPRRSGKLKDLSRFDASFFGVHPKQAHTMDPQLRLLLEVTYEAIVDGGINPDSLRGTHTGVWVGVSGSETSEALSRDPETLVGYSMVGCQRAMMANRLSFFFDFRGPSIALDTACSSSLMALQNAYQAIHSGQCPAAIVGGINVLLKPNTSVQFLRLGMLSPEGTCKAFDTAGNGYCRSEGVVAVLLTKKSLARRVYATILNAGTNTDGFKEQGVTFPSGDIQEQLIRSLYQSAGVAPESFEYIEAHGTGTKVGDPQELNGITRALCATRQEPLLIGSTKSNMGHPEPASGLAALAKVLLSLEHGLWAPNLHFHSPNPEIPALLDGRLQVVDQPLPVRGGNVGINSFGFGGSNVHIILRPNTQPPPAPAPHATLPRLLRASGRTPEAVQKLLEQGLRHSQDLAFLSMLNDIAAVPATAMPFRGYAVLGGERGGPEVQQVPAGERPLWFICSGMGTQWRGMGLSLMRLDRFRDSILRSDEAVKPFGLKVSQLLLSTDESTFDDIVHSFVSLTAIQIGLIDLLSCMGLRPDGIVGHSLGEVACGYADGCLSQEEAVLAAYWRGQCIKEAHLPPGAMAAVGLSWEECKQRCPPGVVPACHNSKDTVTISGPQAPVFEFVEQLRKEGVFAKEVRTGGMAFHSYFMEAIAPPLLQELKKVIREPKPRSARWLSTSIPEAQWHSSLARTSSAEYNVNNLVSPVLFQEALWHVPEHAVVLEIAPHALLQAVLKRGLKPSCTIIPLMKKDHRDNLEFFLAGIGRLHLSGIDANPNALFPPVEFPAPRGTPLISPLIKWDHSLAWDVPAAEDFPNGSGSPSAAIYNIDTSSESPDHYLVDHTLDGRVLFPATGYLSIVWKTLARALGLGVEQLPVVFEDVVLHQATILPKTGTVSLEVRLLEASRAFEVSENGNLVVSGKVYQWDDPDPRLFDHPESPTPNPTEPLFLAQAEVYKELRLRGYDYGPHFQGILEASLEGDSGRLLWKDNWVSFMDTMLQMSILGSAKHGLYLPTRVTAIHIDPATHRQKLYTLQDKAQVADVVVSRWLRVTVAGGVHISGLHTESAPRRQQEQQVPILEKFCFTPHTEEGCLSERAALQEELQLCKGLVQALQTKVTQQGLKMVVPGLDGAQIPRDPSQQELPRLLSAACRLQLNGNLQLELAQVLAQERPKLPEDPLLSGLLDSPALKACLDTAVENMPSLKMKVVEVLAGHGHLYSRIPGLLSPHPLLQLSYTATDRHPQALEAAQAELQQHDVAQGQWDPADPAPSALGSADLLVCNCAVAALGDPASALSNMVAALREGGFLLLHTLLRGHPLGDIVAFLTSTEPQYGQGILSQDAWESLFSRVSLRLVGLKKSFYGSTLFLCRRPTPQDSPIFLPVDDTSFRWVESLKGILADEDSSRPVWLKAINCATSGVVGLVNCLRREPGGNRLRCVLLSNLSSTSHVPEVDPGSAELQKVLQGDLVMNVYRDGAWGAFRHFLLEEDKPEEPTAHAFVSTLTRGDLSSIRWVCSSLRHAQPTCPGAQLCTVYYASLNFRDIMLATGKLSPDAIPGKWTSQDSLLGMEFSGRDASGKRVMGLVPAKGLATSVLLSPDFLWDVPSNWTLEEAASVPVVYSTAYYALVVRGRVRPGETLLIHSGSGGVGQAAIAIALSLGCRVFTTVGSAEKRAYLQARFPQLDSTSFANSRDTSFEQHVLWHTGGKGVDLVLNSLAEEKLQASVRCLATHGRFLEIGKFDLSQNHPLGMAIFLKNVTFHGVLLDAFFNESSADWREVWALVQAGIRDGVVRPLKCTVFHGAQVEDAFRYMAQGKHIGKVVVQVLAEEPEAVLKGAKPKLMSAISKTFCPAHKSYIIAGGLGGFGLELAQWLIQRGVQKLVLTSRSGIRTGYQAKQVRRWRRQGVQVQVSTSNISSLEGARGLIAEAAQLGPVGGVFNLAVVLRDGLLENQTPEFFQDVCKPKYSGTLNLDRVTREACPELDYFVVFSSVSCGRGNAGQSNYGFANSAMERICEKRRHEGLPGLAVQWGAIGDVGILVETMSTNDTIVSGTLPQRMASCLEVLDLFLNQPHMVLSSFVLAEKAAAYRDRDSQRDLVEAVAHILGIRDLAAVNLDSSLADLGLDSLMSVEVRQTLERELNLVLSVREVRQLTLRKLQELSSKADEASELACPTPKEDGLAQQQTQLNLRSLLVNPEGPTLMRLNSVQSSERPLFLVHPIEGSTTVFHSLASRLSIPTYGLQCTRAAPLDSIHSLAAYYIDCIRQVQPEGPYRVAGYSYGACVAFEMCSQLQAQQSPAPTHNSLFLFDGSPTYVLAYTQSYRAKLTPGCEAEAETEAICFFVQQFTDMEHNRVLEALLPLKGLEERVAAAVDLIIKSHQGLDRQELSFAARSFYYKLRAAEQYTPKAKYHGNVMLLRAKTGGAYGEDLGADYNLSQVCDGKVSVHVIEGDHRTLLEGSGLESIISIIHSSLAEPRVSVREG

Fatty acid synthase [16] = target: T6, Fatty acid synthase; experiment: FAS thioesterase domain inhibitors, dose response, biochemical, endpoint fluorescence intensity, uHTS hits (AID 624327); format: functional;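 note: fluorescence from hydrolysis of an O-methyl fluorescein acyl ester substrate by the enzyme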
[17] = target: T7, Long-chain-fatty-acid--AMP ligase FadD28 (Mycobacterium tuberculosis, UniProt P9WQ59); experiment: Fluorescence polarization aasay to screen for inhibitors that compete for the binding of FadD28 to a bisubstrate Measured in Biochemical System Using Plate Reader - 2147-01_Inhibitor_Dose_CherryPick_Activity.; format: functional, Mycobacterium tuberculosis H37Rv
T7 sequence (P9WQ59 whole entry): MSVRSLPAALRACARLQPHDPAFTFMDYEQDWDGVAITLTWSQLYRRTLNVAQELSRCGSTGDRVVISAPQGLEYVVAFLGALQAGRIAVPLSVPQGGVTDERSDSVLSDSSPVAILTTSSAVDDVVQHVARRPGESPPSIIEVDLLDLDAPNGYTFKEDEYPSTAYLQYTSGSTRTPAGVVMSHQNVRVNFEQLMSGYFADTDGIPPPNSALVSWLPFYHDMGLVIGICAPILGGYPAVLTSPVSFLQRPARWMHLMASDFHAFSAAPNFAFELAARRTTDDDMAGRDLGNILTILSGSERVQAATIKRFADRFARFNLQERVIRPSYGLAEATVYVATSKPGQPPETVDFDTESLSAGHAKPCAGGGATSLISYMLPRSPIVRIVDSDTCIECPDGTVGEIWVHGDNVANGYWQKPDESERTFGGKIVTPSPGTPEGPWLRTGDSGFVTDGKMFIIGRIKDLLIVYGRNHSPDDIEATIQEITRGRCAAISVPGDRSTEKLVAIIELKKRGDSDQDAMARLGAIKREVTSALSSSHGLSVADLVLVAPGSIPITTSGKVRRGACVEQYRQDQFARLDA

[18] = Luminescence Cell-Based Dose Confirmation HTS to Identify Inhibitors of Platelet Dense Granule Release. [Related pubchem assays: 1663 (Primary HTS), 1678 (Summary of Project)]; format: functional
BJ [19] = experiment: cells; format: functional, cell-based; settings: Homo sapiens
[20] = target: Luciferin 4-monooxygenase (Photinus pyralis, UniProt P08659); experiment: firefly luciferase enzyme inhibitors, dose response, biochemical, luminescence (AID 1891)
BJ [21] = experiment: cytotoxicity toward BJ-TERT-LT-ST fibroblasts, dose response, cell-based, RAS-independent, luminescence (AID 1935); format: functional; settings: Homo sapiens;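 note: BJ fibroblasts immortalized with TERT plus LT and ST oncogenes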
BJ [22] = experiment: cytotoxicity toward BJ-TERT fibroblasts, dose response, cell-based, RAS-independent, luminescence (AID 1933); format: functional; settings: Homo sapiens
[23] = cytotoxicity toward DRD oncogenic fibroblasts, dose response, cell-based, non-viral oncogenic, luminescence (AID 1934); format: functional; settings: Homo sapiens
Streptococcus = experiment: Group A Streptococcus viability loss, dose response, counter-screen for streptokinase expression inhibitor project, luminescence, BacTiterGlo (AID 1915); format: functional, organism-based;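 note: potency for reduction of bacterial viability or growth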
CAAX prenyl protease 2 = target: T8, CAAX prenyl protease 2 (Homo sapiens, UniProt Q9Y256); experiment: human Rce1 protease inhibitors, dose response, biochemical, yeast membranes, quenched-peptide fluorescence, cherry-pick (AID 588849)
T8 sequence (Q9Y256 whole entry): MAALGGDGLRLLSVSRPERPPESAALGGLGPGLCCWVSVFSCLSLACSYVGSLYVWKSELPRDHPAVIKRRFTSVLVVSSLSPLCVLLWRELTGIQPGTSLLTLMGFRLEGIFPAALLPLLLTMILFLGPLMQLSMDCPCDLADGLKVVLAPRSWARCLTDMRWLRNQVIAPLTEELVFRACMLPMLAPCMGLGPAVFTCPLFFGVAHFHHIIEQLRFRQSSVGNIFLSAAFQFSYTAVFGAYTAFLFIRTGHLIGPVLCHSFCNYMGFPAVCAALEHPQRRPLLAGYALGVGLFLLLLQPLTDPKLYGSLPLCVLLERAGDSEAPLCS

[24] = system: Streptococcus sp. 'group A'; experiment: growth inhibition of control SK(-) GAS strain, dose response, counter-screen for streptokinase expression inhibitor project, luminescence, kanamycin, BacTiterGlo, confirmation (AID 1900); format: functional, organism-based

Chain of Phospholipase A2 (P04054 whole entry): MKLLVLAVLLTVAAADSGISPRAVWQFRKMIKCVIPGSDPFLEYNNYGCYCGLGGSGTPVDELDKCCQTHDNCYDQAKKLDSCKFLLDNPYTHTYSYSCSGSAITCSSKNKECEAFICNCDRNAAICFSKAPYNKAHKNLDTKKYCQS

## CC1(C)Cc2c(sc(NC(=S)NC(=O)c3ccccc3)c2C(=O)O)CO1
Phospholipase A2
  IC50: 13.1 µM (active)
Cysteine protease ATG4B
  IC50: 21.1 µM (inactive)

## c1ccc(CCCN2CCN(CCOC(c3ccccc3)c3ccccc3)CC2)cc1
HEK293
  AC50: 23.8 µM (active)

## COc1ccc(C(O)(C2CCCCC2)C(CN2CCOCC2)c2ccccc2)cc1 (configuration not stated)
[1]
  AC50: 5.2 µM (active)
[2]
  AC50: 1.09 µM (active)
[3]
  AC50: 11.1 µM (active)
[4]
  AC50: 7.26 µM (active)

## CCN(CC)c1ccc(Nc2nc(Cl)ncc2Br)cc1
[5]
  CC50: 100 µM (active)
[6]
  IC50: 50.3 µM (active)

## CC(C)COC(=O)c1ccc(N2C(=O)c3ccccc3C2=O)cc1
Phospholipase A2
  IC50: 66.5 µM (inactive)
Cysteine protease ATG4B
  IC50: 16.2 µM (active)
[7]
  EC50: > 104 µM (inactive)

## Cc1cc(N2CCN(c3nc(-c4ccccc4)cs3)CC2)c2ccccc2n1
[8]
  IC50: 9.27 µM (active)

## CCn1cc(C(=O)O)c(=O)c2cc(F)c(N3CCN(C(=S)Nc4ccc(OC)cc4)CC3)cc21
[8]
  IC50: 73.8 µM (inactive)

## CC(C)Oc1ccc(C(CC(=O)NCc2ccco2)c2ccccc2)cc1 (configuration not stated)
[9]
  EC50: 4.77 µM (active)
Phospholipase A2
  IC50: 11.6 µM (active)
Cysteine protease ATG4B
  IC50: 16.4 µM (active)

## CCOc1ccc(-c2nn(-c3ccccc3)cc2/C=C2\SC(N)=NC2=O)cc1C
[10]
  EC50: 8.58 µM (active)
Cytochrome P450 1A2
  AC50: 15.8 µM (inconclusive)
[11]
  EC50: > 79.4 µM (not active)
[12]
  EC50: > 79.4 µM (not active)
[13]
  EC50: 8.6 µM (active)
[14]
  EC50: > 79.4 µM (not active)
Cytochrome P450 2C9
  AC50: inconclusive

## O=C(COC(=O)c1cc([N+](=O)[O-])ccc1NCCO)NCc1cccs1
Fatty acid synthase [15]
  IC50: 1.68 µM (active)
Fatty acid synthase [16]
  IC50: 3.84 µM (active)

## CC(C)N(C)S(=O)(=O)c1ccc(NC(=O)CSC(=S)N2CCCC2)cc1
[17]
  AC50: > 100 µM (inactive)

## O=C(CCCN1C(=O)C(=Cc2ccc3c(c2)OCO3)SC1=S)Nc1ccc(C(=O)O)c(O)c1
[8]
  IC50: 80 µM (inactive)

## CC(Cc1ccccc1)=NNS(=O)(=O)c1ccc([N+](=O)[O-])cc1
Fatty acid synthase [15]
  IC50: 12.7 µM (active)
Fatty acid synthase [16]
  IC50: 9.15 µM (active)

## Cn1c(/C=C/c2ccccc2)nc2ccccc21
[18]
  EC50: 1.89 µM (active)
BJ [19]
  EC50: 7.95 µM (active)
[20]
  EC50: 1.09 µM (active)
BJ [21]
  EC50: 18.9 µM (active)
BJ [22]
  EC50: 10.8 µM (active)
[23]
  EC50: 8.49 µM (active)
HEK293
  AC50: 3.81 µM (active)

## Cc1ccc(S(=O)(=O)/N=C(\Sc2ccccc2)c2ccccc2)cc1
Fatty acid synthase [15]
  IC50: 54 µM (inactive)
Fatty acid synthase [16]
  IC50: 11 µM (active)

## C[C@H]1COc2c(N3CCN(C)CC3)c(F)cc3c(=O)c(C(=O)O)cn1c23 [LEVOFLOXACIN]
Streptococcus
  EC50: 0.911 µM (active)
CAAX prenyl protease 2
  AC50: 41 µM (active)
[24]
  EC50: 2.1 µM (active)

Reference: ChEMBL document CHEMBL1201862, “PubChem BioAssay data set” (2004)
